The values below are quoted from earlier work in patent US20260262633A1, “BORDEAUX MIXTURE/ORGANOSULFUR FUNGICIDE NANO-SUSPENSION DISPERSION” (priority 2023, published 2026).

Turning to basic copper sulfate, the solubility in water was 1.06 µg/mL.
